Results reported in patent publication US4673665A, “Process for treating anestrus in ewes or beef cattle” (Hoechst Aktiengesellschaft, priority 1982, dated 1987).

Columns and labels:
[1] = system: monkey; conditions: continuous intravenous injection of LH-RH; cited from earlier work
[2] = system: female mature ewes; assay: Example 1: progesterone implant pretreatment, then constant LH-RH infusion in ewes; mating, ovulation (laparoscopy), pregnancy; format: in vivo, sheep (Clun Forest, Welsh Halfbred); conditions: for number of ovulations: laparoscopy
Description: Implants containing progesterone were administered subcutaneously to 28 female mature ewes of two different breeds ("Clun Forest" and "Welsh Halfbred") for a period of 14 days. 12 Ewes were infused constantly with 125 to 250 ng of LH-RH per hour over a period of 48 hours 2 hours before withdrawing the implants. Four ewes treated with a saline solution served as a control. The sheep were examined by laparoscopy to test them for ovulation, moreover blood samples were taken to determine the progesterone level. 24 hours after starting the infusions, onset of estrus was observed using fertile rams at 4 hourly intervals and the ewes in estrus were mated.

[3] = system: sheep; conditions: i.v. injections of 250, 500 and 1,000 ng LH-RH at 2 hourly intervals over 8 days, no gestagen pretreatment; cited from earlier work
[4] = system: sheep; conditions: 14-day s.c. progesterone implant, then 250 ng LH-RH at 2 hourly intervals for 48 hours, cited from earlier work
[5] = system: beef cows; assay: Example 2: LH-RH injections at 2 hourly intervals or constant infusion in early post-partum beef cows; progesterone and LH level; format: in vivo, beef cattle; conditions: for No. showing progesterone rise: 2 to 4 days
Description: 17 Beef cows were injected with 1.0, 2.5 and 5.0 μg of LH-RH, respectively, in the early post-partum period during 2 to 4 days at 2 hourly intervals, while 21 beef cows were given a constant infusion of identical dosage per unit of time during the same period of time.
Blood samples were taken prior to and during the treatments to determine the LH level. Blood samples for determining the progesterone level were taken during a prolonged period of time after the treatment.

[6] = system: beef cows; assay: Example 3: PRID progesterone device for 8 days, then constant LH-RH infusion in post-partum beef cows; ovulation; format: in vivo, beef cattle; conditions: PRID for 8 days, then LH-RH constant infusion 2.5 μg/2 h; 5 beef cows
Description: 5 Beef cows were treated in the early post-partum period over a period of 8 days by inserting in them an intravaginal device (PRID® of the firm Abbott) containing progesterone. Following withdrawal of the device a LH-RH constant infusion in doses of 2.5 μg/2 h was carried out in the manner described in Example 2. Ovulation occurred during the treatment in all cows, said ovulation being characterized by an increase in the progesterone plasma level.

[7] = 125 ng of LH-RH/h constant infusion for 48 h after 14-day progesterone implant
[8] = 250 ng LH-RH/h constant infusion for 48 h after 14-day progesterone implant

In the case of “LH-RH: LH/FSH-releasing hormone, provokes release of LH and FSH from the pituitary gland”, the “pulsed LH release followed by induction of menstrual cycle and ovulation” value [1] is listed as “failed”, the rate of ovulations [2, 7] is listed as 1.4 and the number of ovulations [2, 7] is listed as 9. The “number of mated sheep” value ([2]; 125 ng of LH-RH/h constant infusion for 48 h after 14-day s.c. progesterone implant) was 10, the rate of ovulations [2, 8] was 1.5 and the number of ovulations [2, 8] was 12. The “number of mated sheep” value ([2]; 250 ng LH-RH/h constant infusion for 48 h after 14-day s.c. progesterone implant) was 11, the pregnancy rate ([2]; ewes treated with LH-RH after progesterone implant and mated) was 75% and the induction of estrus [3] was “could not be induced”. For the same substance, the “number of bred sheep that became pregnant” value ([4]; 5 bred sheep) was 3, the estrus and ovulation ([4]; 5 sheep) was “induced” and the “plasma LH concentrations during treatment phase compared to pretreatment phase” value ([5]; all test animals, irrespective of mode of administration and dose (1.0, 2.5, 5.0 μg)) was “distinct increase”. The “No. showing progesterone rise” value ([5]; constant infusion 1.0 μg/2 h, total 6 + 3 cows) was 2, the “number of animals that responded (progesterone rise)” value ([5]; constant infusion 1.0 μg/2 h, the 3 cows with calvings in summer) was 2 and the “response (progesterone rise)” value ([5]; constant infusion 1.0 μg/2 h, the 6 cows treated after spring calvings) was “did not respond”. The “No. showing progesterone rise” value ([5]; constant infusion 2.5 μg/2 h, total 6 cows) was 4, the “No. showing progesterone rise” value ([5]; constant infusion 5.0 μg/2 h, total 6 cows) was 4 and the “No. showing progesterone rise” value ([5]; injections at 2 hourly intervals, 1.0 μg, total 6 cows) was 4. The “No. showing progesterone rise” value ([5]; injections at 2 hourly intervals, 2.5 μg, total 6 cows) was 4, the “No. showing progesterone rise” value ([5]; injections at 2 hourly intervals, 5.0 μg, total 5 cows) was 4 and the “cows in which ovulation occurred during the treatment (increase in progesterone plasma level)” value [6] was “all cows”.
